[ ]: non-standard residue; d: D form.
Tests used:
[1] = system: H460 human non-small cell lung cancer cells; assay: MTS cell viability assay, H460 cells; format: cell-based; settings: H460, 12.5 to 100 μM, 2-4 weeks
Procedure: (§1) The effect of these peptides was tested on both human fibroblasts and H460 human non-small cell […] cancer cells at doses in the range 12.5 to 100 μM. The peptides were tested in vitro by exposure to 100 H460 human non-small cell lung cancer cells, or short term cultures of normal human diploid fibroblasts, in 200 ul of Ham's F12 tissue culture medium supplemented with 10% FCS. Cells were set up in 100 ul on day 0 and 24 hours later a further 100 ul of the same medium containing ×2 the appropriate concentration of peptide over a range of 12.5-100 uM was added. The cells were then incubated at 37° C., 5% CO2 in an humidified incubator for 2-4 weeks.
(§2) Cell viability was measured by an MTS assay (CellTiter 96^R Non-Radioactive Cell Proliferation Assay. Promega Corporation, 2800 Woods Hollow Road, Madison Wis. 53711-5399 USA). The original form of this assay was described by Mosmann (J. Immunol. Meth. 65; 55-63. 1983) and gives a colorometric reading whose intensity depends on the conversion, by viable cells, of a tetrazolium salt into a coloured formazan which is easily quantified by colorimetric reading of a 96 well assay plate.

[2] = system: normal human diploid fibroblasts; assay: MTS cell viability assay, fibroblasts; format: cell-based; settings: 12.5 to 100 μM, 2-4 weeks
Procedure: as §1, §2

[3] = system: Cdk1 compared to Cdk4 in RT112 cells; assay: sequential Western blots of RT112 cells after peptide exposure; format: cell-based, human; settings: over 15 days
Excerpt: Peptides were introduced at day 0 and left in-situ throughout the experiment.
In a clinical context this might provide a biomarker of therapeutic efficacy. […] Such a homogeneous therapeutic response is in marked contrast to the wide range of variability in dose response of different cancer cell lines seen with conventional chemotherapeutic agents^24. Cancer cells both underwent successful mitosis and died (FIG. 3f) or died in interphase (FIG. 7d). […] MRC-hTERT fibroblasts (FIG. 7c) and short term cultures of normal diploid human keratinocytes (FIG. 3h) were not killed by 200 μM THR53.

[4] = system: RT112 human bladder cancer cells; assay: clonogenic assay on RT112 cells; format: cell-based
Procedure: (§3) Normal diploid human fibroblasts in short term culture were unaffected (FIG. 2b). […] However, PRGPRP (SEQ ID NO: 2) is only effective at killing RT112 bladder cancer cells at a concentration of 5.0 mM. Because of concern that such high peptide doses might cause artefactual, non-specific effects, structure/function studies were carried out.
(§4) The first experiments were carried out on cyc-[[…]] (THR 53, (SEQ ID NO: 9)), see FIG. 4. Whilst the 96 well assays described in Example 3 are suitable for initial screening of small amounts of peptide material the long incubation periods in dense culture do themselves compromise cell viability to some extent. […] In clonogenic assays, (previously described by Warenius et al Br J Cancer (2000) 83(8), 1048-1059) single cell suspensions of 100 cells are plated in plentiful volumes of 2 ml of Ham's F12 tissue culture medium supplemented with 10% FCS and incubated for 15, 20 or 25 days. A high percentage of the plated cells (40-60% in the case of H460) go through repeated doublings to yield colonies of 200 or more cells which can be easily visualized by the naked eye and counted under a low power lens when stained by giemsa stain.

[5] = system: MGHU-1 Human transitional bladder cancer cells; assay: in-vitro culture of MGHU-1 bladder cancer cells, cell death observed morphologically; format: cell-based
Procedure: as §3
5 mM was required to produce 100% lethality in in vitro experiments on RT 112 (FIG. 2a) or MGHU-1 human bladder cancer cells. This limits the applicability of PRGPRP (SEQ ID NO: 2) to therapy even though it has selected killing activity in human cancer cells but not normal human fibroblasts.

[6] = system: H460 human non-small cell lung cancer cells; assay: clonogenic assay on H460 cells; format: cell-based
Procedure: as §4
The efficacy of THR53 was compared to Ac-PRGPRP-NH2 (SEQ ID NO: 2) using a clonogenic assay.

[7] = system: Normal diploid human fibroblasts; assay: normal diploid human fibroblasts in short term culture; format: cell-based
Procedure: as §3

Fibroblasts = assay: Cell killing by cyclic peptides, fibroblasts (Table 2); format: cell-based; set-up: key: - - - = No cell killing
Procedure: (§5) Table 2 lists cyclic peptides including the PRGPRP (SEQ ID NO:2) sequence which have no effect on RT112 bladder cancer cells at a concentration of 100 μM.

[8] = system: RT112 bladder cancer cells; assay: Cell killing by cyclic peptides, RT112 (Table 2); format: cell-based, human; set-up: key: - - - = No cell killing; settings: 100 μM
Procedure: as §5

human cancer cells = assay: clonogenic assays of human cancer cells exposed to PRGPRP motif in cyclic amphiphilic cassettes; format: cell-based; settings: FIG. 6i
Procedure: FIGS. 6(h) and (i) show clonogenic assays of human cancer cells exposed to the PRGPRP (SEQ ID NO: 2) motif in cyclic amphiphlic cassettes. THR53 (SEQ ID NO: 9, cyc-[[…]]); THR53C (SEQ ID NO: 23, cyc-[[…]], a control peptide); THR54 (SEQ ID NO: 10, cyc-[[…]]); THR79 (SEQ ID NO: 11, cyc-[PRGPRPvalklalklal]).
as §4
The effectiveness of cyclic peptides comprising amphiphilic sequences is further illustrated in FIGS. 6h and 6i, showing the results of a clonogenic assay using the peptides THR53 cyc-[[…]] (SEQ ID NO: 9); THR53C, cyc-[[…]] […]

cancer cell = assay: effect of amino acid stereochemistry on cancer cell-killing activity; format: cell-based
Excerpt: The peptides used were: THR75 (SEQ ID NO: 24, cyc-[PRGPRPValklalklal]); THR77 (SEQ ID NO: 25, cyc-[PRGPRPValklalklaL]); THR78 (SEQ ID NO: 26, cyc-[[…]lklalklaL]; THR79 (SEQ ID NO: 11 cyc-[PRGPRPvalklalklal]). Upper case denotes the L isomer of the amino acids and lower case denotes the D isomer.
It has also been discovered that the stereochemistry of the amino acids in the peptide sequence is relevant to efficacy. Analogues of THR54 (SEQ ID NO: 10) in which certain L-amino-acids have been replaced with D-amino-acids were prepared.
This was THR79 in which was approximately 2-4 times as active as THR54.

[9] = system: MGHU-1 Human transitional bladder cancer cells; settings: cited from earlier work

Question: Which results are given for “Ac-PRGPRPVKLALKLALKAL-NH2 [THR51, linear peptide outside the scope of the invention]”?
Answer: cancer cell killing (cell viability, MTS) [1]: improvement in cancer cell killing over PRGPRP; killing of fibroblasts (cell viability, MTS) [2]: equally as well killed

Question: With “Ac-PRRPGPVKLALKLALKAL-NH2 [THR51C, control for THR51 in which one arginine was switched with a glycine, reference compound]” as the substance, how does the “killing of fibroblasts (cell viability, MTS)” value [2] read?
Answer: The value was “non-specific killing”.

Question: With “Ac-Pro-Arg-Arg-Pro-Gly-Pro-NH2 (Ac-PRRPGP-NH2)” as the substance, how does the “change in Cdk1 compared to Cdk4” value [3] read?
Answer: The value was “not seen”.

Question: And the “cancer cell lethality / activity in clonogenic assay” value ([4]; RT112)?
Answer: Its value is “inactive”.

Question: Which results are given for “Ac-Pro-Arg-Gly-Pro-Arg-Pro-NH2 (Ac-PRGPRP-NH2) [end-capped hexameric peptide according to WO2005/123760]”?
Answer: change in Cdk1 compared to Cdk4 [3]: Progressive increase; cell death observed morphologically in-vitro ([5]; 5.0 mM, 25 days after exposure): Complete cell death; concentration required to produce 100% lethality ([5]; MGHU-1, in vitro): 5 mM; effect on H460 cell survival in clonogenic assay ([6]; 1 to 10 mM concentration): limited effect; effect on H460 non-small cell lung cancer, clonogenic assay ([6]; H460): no effect; cancer cell lethality / activity in clonogenic assay ([4]; RT112): Cancer cell lethality was confirmed; concentration effective at killing RT112 bladder cancer cells ([4]; RT112): 5.0 mM; concentration required to produce 100% lethality ([4]; RT 112, in vitro): 5 mM; effect on normal diploid human fibroblasts in short term culture ([7]; 5.0 mM): unaffected

Question: Which “Cell Killing Fibroblasts” value (Fibroblasts) does the source give for “Cyc-[AAAGGGPRGPRPGGGAAA] (cyclic; Cyclic peptide; /note=“cyclic peptide”)” here?
Answer: Its value is “- - -”.

Question: What about the “Cell Killing RT112” value [8] of the same substance?
Answer: Its value is “- - -”.

Question: Which “Cell Killing Fibroblasts” value (Fibroblasts) does the source give for “Cyc-[AAGPGGPRGPRPGGPGAA] (cyclic; Cyclic peptide; /note=“cyclic peptide”)” here?
Answer: The value was “- - -”.

Question: What about the “Cell Killing RT112” value [8] of the same substance?
Answer: Its value is “- - -”.

Question: With “Cyc-[GGGGGGPRGPRPGGGGGG] (cyclic; Cyclic peptide; /note=“cyclic peptide”)” as the substance, how does the “Cell Killing Fibroblasts” value (Fibroblasts) read?
Answer: Its value is “- - -”.

Question: And the “Cell Killing RT112” value [8]?
Answer: Its value is “- - -”.

Question: For “Cyc-[GGGGPRGPRPGGGGPRGPRPVPRGPRPV] (cyclic; Cyclic peptide; /note=“cyclic peptide”)”, which “Cell Killing Fibroblasts” value (Fibroblasts) is on record?
Answer: The value was “- - -”.

Question: What about the “Cell Killing RT112” value [8] of the same substance?
Answer: The value was “- - -”.

Question: Which “arginine-related structure function relationship in cyclic amphiphilic compounds (control peptide)” value (human cancer cells) does the source give for “cyc-[FPPRRPGPVKLALKLALK] (cyclic; Control peptide; /note=“cyclic peptide”) [THR53C, a control peptide]” here?
Answer: Its value is “structure function relationship was retained”.

Question: Which cancer cell-killing activity (cancer cell) does the source give for “cyc-[PRGPRPVALKLALKLAL] (cyclic; Cyclic peptide; /note=“cyclic peptide”) [THR54]” here?
Answer: The cancer cell-killing activity was “active”.

Question: Which results are given for “cyc-[PRGPRPVPRGPRPVPRGPRPV] (cyclic; Cyclic peptide; /note=“cyclic peptide”) [cyclic peptide disclosed in WO2005/123760]”?
Answer: effect on MGHU1 cells as disclosed in WO2005/123760 [9]: caused morphological changes; killing of MGHU1 cells [5]: did not kill; effect on normal fibroblasts [7]: markedly stimulate

Question: With “cyc-[PRGPRPValklalklal] (cyclo(PRGPRPV[dA][dL][dK][dL][dA][dL][dK][dL][dA][dL]); SMILES CC(C)C[C@H]1NC(=O)[C@@H](C)NC(=O)[C@H](C(C)C)NC(=O)[C@@H]2CCCN2C(=O)[C@H](CCCNC(=N)N)NC(=O)[C@@H]2CCCN2C(=O)CNC(=O)[C@H](CCCNC(=N)N)NC(=O)[C@@H]2CCCN2C(=O)[C@@H](CC(C)C)NC(=O)[C@@H](C)NC(=O)[C@@H](CC(C)C)NC(=O)[C@@H](CCCCN)NC(=O)[C@@H](CC(C)C)NC(=O)[C@@H](C)NC(=O)[C@@H](CC(C)C)NC(=O)[C@@H](CCCCN)NC1=O) [THR 75]” as the substance, how does the “cancer cell-killing activity at 100 uM” value (cancer cell; 100 uM concentration) read?
Answer: The value was “remove the activity”.

Question: Which “activity relative to THR54” value (cancer cell) does the source give for “cyc-[PRGPRPvalklalklal] (cyclo(PRGPRP[dV][dA][dL][dK][dL][dA][dL][dK][dL][dA][dL]); SMILES CC(C)C[C@H]1NC(=O)[C@@H](C)NC(=O)[C@@H](C(C)C)NC(=O)[C@@H]2CCCN2C(=O)[C@H](CCCNC(=N)N)NC(=O)[C@@H]2CCCN2C(=O)CNC(=O)[C@H](CCCNC(=N)N)NC(=O)[C@@H]2CCCN2C(=O)[C@@H](CC(C)C)NC(=O)[C@@H](C)NC(=O)[C@@H](CC(C)C)NC(=O)[C@@H](CCCCN)NC(=O)[C@@H](CC(C)C)NC(=O)[C@@H](C)NC(=O)[C@@H](CC(C)C)NC(=O)[C@@H](CCCCN)NC1=O) [THR79]” here?
Answer: The value was 2-4 times.

Question: And the cancer cell-killing activity (cancer cell)?
Answer: The cancer cell-killing activity was “showed cancer cell-killing properties”.

Reference: patent publication US8883718B2, “Treating cancer” (Theryte Limited, priority 2008, dated 2014)
